In PubChem BioAssay (NCI):
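GI50 = concentration required for 50% inhibition of growth. TGI marks complete inhibition of growth.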

What was measured:
Test in all cases: NCI tumour cell line growth inhibition, 384-well format
786-0 renal = system: 786-0 renal
A498 renal = system: A498 renal
A549 NSCLC = system: A549 NSCLC
ACHN renal = system: ACHN renal
BT-549 breast = system: BT-549 breast
CAKI-1 renal = system: CAKI-1 renal
CCRF-CEM leukemia = system: CCRF-CEM leukemia
COLO 205 colon = system: COLO 205 colon
DU-145 prostate = system: DU-145 prostate
HCC-2998 colon = system: HCC-2998 colon
HCT-116 colon = system: HCT-116 colon
HCT-15 colon = system: HCT-15 colon
HL-60(TB) leukemia = system: HL-60(TB) leukemia
HOP-62 NSCLC = system: HOP-62 NSCLC
HOP-92 NSCLC = system: HOP-92 NSCLC
HT29 colon = system: HT29 colon
IGROV1 ovarian = system: IGROV1 ovarian
K-562 leukemia = system: K-562 leukemia
KM12 colon = system: KM12 colon
LOX IMVI melanoma = system: LOX IMVI melanoma
M14 melanoma = system: M14 melanoma
MALME-3M melanoma = system: MALME-3M melanoma
MCF7 breast = system: MCF7 breast
MDA-MB-231 breast = system: MDA-MB-231 breast
MDA-MB-435 melanoma = system: MDA-MB-435 melanoma
MDA-MB-468 breast = system: MDA-MB-468 breast
MOLT-4 leukemia = system: MOLT-4 leukemia
NCI-H226 lung = system: NCI-H226 lung
NCI-H23 lung = system: NCI-H23 lung
NCI-H322M lung = system: NCI-H322M lung
NCI-H460 NSCLC = system: NCI-H460 NSCLC
NCI-H522 lung = system: NCI-H522 lung
NCI/ADR-RES ovarian = system: NCI/ADR-RES ovarian
OVCAR-3 ovarian = system: OVCAR-3 ovarian
OVCAR-4 ovarian = system: OVCAR-4 ovarian
OVCAR-5 ovarian = system: OVCAR-5 ovarian
OVCAR-8 ovarian = system: OVCAR-8 ovarian
PC-3 prostate = system: PC-3 prostate
RPMI-8226 leukemia = system: RPMI-8226 leukemia
RXF 393 renal = system: RXF 393 renal
SF-268 CNS = system: SF-268 CNS
SF-295 CNS = system: SF-295 CNS
SF-539 CNS = system: SF-539 CNS
SK-MEL-2 melanoma = system: SK-MEL-2 melanoma
SK-MEL-28 melanoma = system: SK-MEL-28 melanoma
SK-MEL-5 melanoma = system: SK-MEL-5 melanoma
SK-OV-3 ovarian = system: SK-OV-3 ovarian
SN12C renal = system: SN12C renal
SNB-19 CNS = system: SNB-19 CNS
SR leukemia = system: SR leukemia
SW-620 colon = system: SW-620 colon
T-47D breast = system: T-47D breast
TK-10 renal = system: TK-10 renal
U251 glioblastoma = system: U251 glioblastoma
UACC-257 melanoma = system: UACC-257 melanoma
UACC-62 melanoma = system: UACC-62 melanoma
UO-31 renal = system: UO-31 renal

`C[C@H](c1ccc(Cl)cc1N)N1C(=O)c2cc(I)ccc2N(CCCN2CCN(C)CC2)C(=O)[C@@H]1c1ccc(Cl)cc1` was tested, and the GI50 ([…]-0 renal) was 1600 nM, the TGI (786-0 renal) was 2960 nM and the GI50 (A498 renal) was 779 nM. For the same compound, the TGI (A498 renal) was 2040 nM, the GI50 (A549 NSCLC) was 1060 nM and the TGI (A549 NSCLC) was 2260 nM. It also gave a GI50 (ACHN renal) of 965 nM, a TGI (ACHN renal) of 2160 nM and a GI50 (BT-549 breast) of 1550 nM. For the same compound, the TGI (BT-549 breast) was 2900 nM, the GI50 (CAKI-1 renal) was 482 nM and the TGI (CAKI-1 renal) was 1780 nM. For the same compound, the GI50 (CCRF-CEM leukemia) was 1410 nM, the TGI (CCRF-CEM leukemia) was 2720 nM and the GI50 (COLO 205 colon) was 1640 nM. It also gave a TGI (COLO 205 colon) of 3020 nM, a GI50 (DU-145 prostate) of 1760 nM and a TGI (DU-145 prostate) of 3160 nM. It also gave a GI50 (HCC-2998 colon) of 1250 nM, a TGI (HCC-2998 colon) of 2500 nM and a GI50 (HCT-116 colon) of 613 nM. The TGI (HCT-116 colon) was 1950 nM, the GI50 (HCT-15 colon) was 1680 nM and the TGI (HCT-15 colon) was 3060 nM. It also gave a GI50 (HL-60(TB) leukemia) of 255 nM, a TGI (HL-60(TB) leukemia) of 641 nM and a GI50 (HOP-62 NSCLC) of 1620 nM. It also gave a TGI (HOP-62 NSCLC) of 2980 nM, a GI50 (HOP-92 NSCLC) of 1130 nM and a TGI (HOP-92 NSCLC) of 2340 nM. The GI50 (HT29 colon) was 1680 nM, the TGI (HT29 colon) was 3080 nM and the GI50 (IGROV1 ovarian) was 1210 nM. For the same compound, the TGI (IGROV1 ovarian) was 2470 nM, the GI50 (K-562 leukemia) was 1290 nM and the TGI (K-562 leukemia) was 2580 nM. For the same compound, the GI50 (KM12 colon) was 1560 nM, the TGI (KM12 colon) was 2920 nM and the GI50 (LOX IMVI melanoma) was 1700 nM. For the same compound, the TGI (LOX IMVI melanoma) was 3090 nM, the GI50 (M14 melanoma) was 1140 nM and the TGI (M14 melanoma) was 2360 nM. The GI50 (MALME-3M melanoma) was 1060 nM, the TGI (MALME-3M melanoma) was 2250 nM and the GI50 (MCF7 breast) was 1060 nM. It also gave a TGI (MCF7 breast) of 2260 nM, a GI50 (MDA-MB-231 breast) of 1610 nM and a TGI (MDA-MB-231 breast) of 2960 nM. For the same compound, the GI50 (MDA-MB-435 melanoma) was 1710 nM, the TGI (MDA-MB-435 melanoma) was 3080 nM and the GI50 (MDA-MB-468 breast) was 1710 nM. For the same compound, the TGI (MDA-MB-468 breast) was 3090 nM, the GI50 (MOLT-4 leukemia) was 144 nM and the TGI (MOLT-4 leukemia) was 279 nM. It also gave a GI50 (NCI-H226 lung) of 649 nM, a TGI (NCI-H226 lung) of 1980 nM and a GI50 (NCI-H23 lung) of 1570 nM. It also gave a TGI (NCI-H23 lung) of 2920 nM, a GI50 (NCI-H322M lung) of 1770 nM and a TGI (NCI-H322M lung) of 3170 nM. For the same compound, the GI50 (NCI-H460 NSCLC) was 670 nM, the TGI (NCI-H460 NSCLC) was 2000 nM and the GI50 (NCI-H522 lung) was 1540 nM. The TGI (NCI-H522 lung) was 2880 nM, the GI50 (NCI/ADR-RES ovarian) was 1590 nM and the TGI (NCI/ADR-RES ovarian) was 2950 nM. For the same compound, the GI50 (OVCAR-3 ovarian) was 1450 nM, the TGI (OVCAR-3 ovarian) was 2780 nM and the GI50 (OVCAR-4 ovarian) was 1560 nM. It also gave a TGI (OVCAR-4 ovarian) of 2900 nM, a GI50 (OVCAR-5 ovarian) of 1770 nM and a TGI (OVCAR-5 ovarian) of 3160 nM. It also gave a GI50 (OVCAR-8 ovarian) of 1730 nM, a TGI (OVCAR-8 ovarian) of 3120 nM and a GI50 (PC-3 prostate) of 1660 nM. For the same compound, the TGI (PC-3 prostate) was 3040 nM, the GI50 (RPMI-8226 leukemia) was 20.9 nM and the TGI (RPMI-8226 leukemia) was 191 nM. For the same compound, the GI50 (RXF 393 renal) was 848 nM, the TGI (RXF 393 renal) was 2120 nM and the GI50 (SF-268 CNS) was 1770 nM. The TGI (SF-268 CNS) was 3160 nM, the GI50 (SF-295 CNS) was 1700 nM and the TGI (SF-295 CNS) was 3080 nM. The GI50 (SF-539 CNS) was 1640 nM, the TGI (SF-539 CNS) was 3010 nM and the GI50 (SK-MEL-2 melanoma) was 1590 nM. The TGI (SK-MEL-2 melanoma) was 2940 nM, the GI50 (SK-MEL-28 melanoma) was 1590 nM and the TGI (SK-MEL-28 melanoma) was 2950 nM. It also gave a GI50 (SK-MEL-5 melanoma) of 1110 nM, a TGI (SK-MEL-5 melanoma) of 2310 nM and a GI50 (SK-OV-3 ovarian) of 1520 nM. The TGI (SK-OV-3 ovarian) was 2850 nM, the GI50 (SN12C renal) was 1590 nM and the TGI (SN12C renal) was 2940 nM. It also gave a GI50 (SNB-19 CNS) of 1710 nM, a TGI (SNB-19 CNS) of 3090 nM and a GI50 (SR leukemia) of 144 nM. The TGI (SR leukemia) was 280 nM, the GI50 (SW-620 colon) was 1780 nM and the TGI (SW-620 colon) was 3190 nM. It also gave a GI50 (T-47D breast) of 1460 nM, a TGI (T-47D breast) of 2780 nM and a GI50 (TK-10 renal) of 1580 nM. For the same compound, the TGI (TK-10 renal) was 2920 nM, the GI50 (U251 glioblastoma) was 1640 nM and the TGI (U251 glioblastoma) was 3020 nM. It also gave a GI50 (UACC-257 melanoma) of 1220 nM, a TGI (UACC-257 melanoma) of 2470 nM and a GI50 (UACC-62 melanoma) of 591 nM. The TGI (UACC-62 melanoma) was 1950 nM, the GI50 (UO-31 renal) was 1150 nM and the TGI (UO-31 renal) was 2370 nM.
